Legend:
[1] = target: T1, Human TRPV1 expressing CHO cells (Homo sapiens, UniProt Q8NER1); experiment: Screening for TRPV1 antagonist using the 45Calcium uptake assay (inhibition of capsaicin induced cellular uptake of radioactive calcium); type: cell-based; details: for inhibition at 1 µM: CHO; for inhibition at 1 µM / % inhibition of ^45Ca uptake at 1 μM: test compound 1 μM, capsaicin 250 nM, relative to maximum ^45Ca uptake induced by capsaicin alone; for IC50: inhibition of capsaicin (250 nM) induced ^45Ca uptake
T1 construct: expressed in transfected cells; host or cells: CHO cells under G-418 selection
T1 sequence (Q8NER1 whole entry): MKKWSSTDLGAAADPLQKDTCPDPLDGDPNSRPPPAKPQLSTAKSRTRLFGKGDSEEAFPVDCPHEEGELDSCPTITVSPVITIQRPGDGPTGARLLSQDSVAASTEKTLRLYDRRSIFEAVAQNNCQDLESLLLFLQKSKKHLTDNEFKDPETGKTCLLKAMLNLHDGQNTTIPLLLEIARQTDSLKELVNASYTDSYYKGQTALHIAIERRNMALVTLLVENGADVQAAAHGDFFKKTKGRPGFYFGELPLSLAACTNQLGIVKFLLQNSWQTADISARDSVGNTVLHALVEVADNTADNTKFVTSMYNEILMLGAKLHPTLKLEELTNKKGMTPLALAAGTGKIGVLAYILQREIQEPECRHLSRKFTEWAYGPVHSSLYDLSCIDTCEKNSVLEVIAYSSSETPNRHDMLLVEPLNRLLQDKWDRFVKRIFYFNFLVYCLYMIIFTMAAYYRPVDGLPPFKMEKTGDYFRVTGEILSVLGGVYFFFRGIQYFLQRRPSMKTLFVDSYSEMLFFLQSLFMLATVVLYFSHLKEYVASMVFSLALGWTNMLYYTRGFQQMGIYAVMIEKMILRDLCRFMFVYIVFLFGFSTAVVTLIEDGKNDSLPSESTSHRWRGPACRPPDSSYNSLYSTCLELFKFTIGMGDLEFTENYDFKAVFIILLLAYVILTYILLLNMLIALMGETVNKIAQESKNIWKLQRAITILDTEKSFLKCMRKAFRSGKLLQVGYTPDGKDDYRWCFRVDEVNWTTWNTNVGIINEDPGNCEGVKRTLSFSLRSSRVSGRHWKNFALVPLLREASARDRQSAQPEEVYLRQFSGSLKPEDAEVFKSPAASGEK
Experimental: The inhibition of TRPV1 receptor activation was followed as inhibition of capsaicin induced cellular uptake of radioactive calcium which represents calcium influx exclusively through the plasma membrane associated TRPV1 receptor.
Stock solution of capsaicin was made in ethanol and test compounds in 100% DMSO. Stock solutions were diluted to appropriate final concentrations in assay buffer keeping the final DMSO concentration between 0.1% and 0.55%.
^45Ca was used at a final concentration of 2.5 μCi/ml (^45Ca, ICN).
Assay buffer was composed of F-12 DMEM medium supplemented with 1.8 mM CaCl2 (final conc.) and 0.1% Bovine serum albumin. (BSA from SIGMA)
Wash buffer was tyrodes solution supplemented with 0.1% BSA and 1.8 mM calcium. Lysis buffer contained 50 mM Tris-HCl, pH7.5, 150 mM NaCl, 1% Triton X-100, 0.5% deoxycholate and 0.1% Sodium dodicyl sulphate (SDS, SIGMA)
Assay was carried out with some modifications the of procedure as described by Toth et. al. (See Toth A et. al., Life Sciences 73 p 487-498, 2003). Human TRPV1 expressing CHO cells were grown in F-12 DMEM (Dulbecco's modified Eagle's medium—GIBCO) medium with 10% FBS (fetal bovine serum Hyclone), 1% penicillin-streptomycin solution, 400 μg/ml of G-418. Cells were seeded 48 h prior to the assay in 96 well plates so as to get ˜50,000 cells per well on the day of experiment. Plates were incubated at 37° C. in the presence of 5% CO2. Cells were then washed twice with 200 μl of assay buffer and re-suspended in 144 μl of the same. Assay was carried out at 30° C. in total volume of 200 μl. Test compounds were added to the cells fifteen minutes before addition of capsaicin, Final concentration of capsaicin in the assay was 250 nM. After 5 minutes of agonist treatment, drug was washed out and wells rinsed with 300 μl of ice cold wash buffer 3×. The cells were lysed in 50 μl lysis buffer for 20 min. 40 μl of cell lysate was mixed with 150 μl of Microscint PS, left overnight for equilibration. Radioactivity in samples was measured as counts per minute (cpm) using Packard Biosciences Top Count. The drug/vehicle/capsaicin treated ^45Ca uptake values were normalized over basal ^45Ca value. Data was expressed as % inhibition of ^45Ca uptake by test compound with respect to maximum ^45Ca uptake induced by capsaicin alone. IC50 value was calculated from dose response curve by nonlinear regression analysis using GraphPadPRISM software.

Row | Molecule | inhibition at 1 µM [1] [%] | IC50 [1] [nM] | melting point [°C] | % inhibition of ^45Ca uptake at 1 μM [1] [%]
1 | O=C(Nc1cccc2cnccc12)NC1CC2(CCC2)Oc2c(O)cccc21 (racemic) [Example 61, (±) 1-(3,4-Dihydro-8-hydroxy-spiro[2H-1-benzopyran-2,1′-cyclobutane]-4-yl)-3-(isoquinolin-5-yl)urea] | > 50 | 775 | 246 to 247 | –
2 | CC(=O)Nc1ccc2c(c1)C(NC(=O)Nc1cccc3cnccc13)CC1(CCC1)O2 (racemic) [Example 78, (±) 1-(6-Acetamido-3,4-dihydro-spiro[2H-1-benzopyran-2,1′-cyclobutane]-4-yl)-3-(isoquinolin-5-yl)urea] | < 50 | – | – | –
3 | Nc1ccc2c(c1)C(NC(=O)Nc1cccc3cnccc13)CC1(CCC1)O2 (racemic) [Example 79, (±) 1-(6-Amino-3,4-dihydro-spiro[2H-1-benzopyran-2,1′-cyclobutane]-4-yl)-3-(isoquinolin-5-yl)urea] | < 50 | – | – | –
4 | O=C(Nc1cccc2cnccc12)NC1CC2(CCC2)Sc2ccccc21 (racemic) [Example 81, (±) 1-(3,4-dihydro-spiro[2H-1-benzothiopyran-2,1′-cyclobutan]-4-yl)-3-(isoquinolin-5-yl)urea] | > 50 | 5.2 | – | –
5 | O=C(Nc1cccc2cnccc12)NC1CC2(CCC2)S(=O)(=O)c2ccccc21 (racemic) [Example 82, (±) 1-(1,1-dioxo-3,4-dihydro-spiro[2H-1-benzothiopyran-2,1′cyclobutane]-4-yl)-3-(isoquinolin-5-yl)urea] | – | 224 | – | >50
6 | O=C(Nc1cccc2cnccc12)NC1CC2(CCC2)Oc2ccccc21 (single isomer, unassigned; (+)) [Example 4, (+) 1-(3,4-Dihydro-spiro-[2H-1-benzopyran-2,1′-cyclobutan]-4-yl)-3-(isoquinolin-5-yl)urea] | > 50 | 7.8 | – | –
7 | O=C(Nc1cccc2c[n+]([O-])ccc12)NC1CC2(CCC2)Oc2ccccc21 (single isomer, unassigned; (+)) [Example 10, (+) 1-(3,4-Dihydro-spiro[2H-1-benzopyran-2,1′-cyclobutane]-4-yl)-3-(2-oxoisoquinolin-5-yl)urea] | > 50 | 104 | – | –
8 | O=C(Nc1cccc2cnccc12)NC1CC2(CCC2)Oc2ccc(F)cc21 (single isomer, unassigned; (+)) [Example 43, (+) 1-(3,4-Dihydro-6-fluoro-spiro[2H-1-benzopyran-2,1′-cyclobutane]-4-yl)-3-(isoquinolin-5-yl)urea] | > 50 | 5.2 | – | –
9 | O=C(Nc1cccc2cnccc12)NC1CC2(CCC2)Oc2c(F)cc(F)cc21 (single isomer, unassigned; (+)) [Example 59] | > 50 | 7.59 | – | –
10 | O=C(Nc1cccc2cnccc12)NC1CC2(CCC2)Oc2ccccc21 (single isomer, unassigned; (-)) [Example 5, (−) 1-(3,4-Dihydro-spiro-[2H-1-benzopyran-2,1′-cyclobutan]-4-yl)-3-(isoquinolin-5-yl)urea] | – | 304 | – | >50
11 | O=C(Nc1cccc2cnccc12)NC1CC2(CCC2)Oc2ccc(F)cc21 (single isomer, unassigned; (-)) [Example 44, (−) 1-(3,4-Dihydro-6-fluorospiro[2H-1-benzopyran-2,1′-cyclobutane]-4-yl)-3-(isoquinolin-5-yl)urea] | < 50 | – | – | –
12 | O=C(Nc1cccc2cnccc12)NC1CC2(CCC2)Oc2c(F)cc(F)cc21 (single isomer, unassigned; (-)) [Example 60, (−) 1-(6,8-Difluoro-3,4-Dihydro-spiro[2H-1-benzopyran-2,1′-cyclobutane]-4-yl)-3-(isoquinolin-5-yl)urea] | – | – | – | <50
13 | O=C(Nc1cccc2cnccc12)NC1CC2(CCC2)Oc2ccc(Cl)cc21 (single isomer, unassigned; (-)) [Example 64, (−) 1-(6-Chloro-3,4-dihydro-spiro[2H-1-benzopyran-2,1′-cyclobutane]-4-yl)-3-(isoquinolin-5-yl)urea] | < 50 | – | – | –
14 | O=C(Nc1cccc2cnccc12)NC1CC2(CCC2)Oc2cc(Cl)ccc21 (single isomer, unassigned; (-)) [Example 76, (−) 1-(7-Chloro-3,4-dihydro-spiro[2H-1-benzopyran-2,1′-cyclobutane]-4-yl)-3-(isoquinolin-5-yl)urea] | < 50 | – | – | –
15 | O=C(Nc1cccc2nsnc12)NC1CC2(CCC2)Oc2ccccc21 (centres unmarked) [Example 28, N-2,1,3-benzothiadiazol-4-yl-N′-3,3′,4,4′-tetrahydro-2′H-spiro[chromene-2,1′-cyclobutan]-4-ylurea (N-2,1,3-benzothiadiazol-4-yl-N′-3,4-dihydro-2H-spiro[chromene-2,1′-cyclobutan]-4-ylurea)] | – | – | – | <50
16 | O=C(Nc1cccc2nsnc12)NC1CC2(CCC2)Oc2ccccc21 (centres unmarked) [Example 29, N-2,1,3-benzothiadiazol-4-yl-N′-3,3′,4,4′-tetrahydro-2′H-spiro[chromene-2,1′-cyclobutan]-4-ylurea (N-2,1,3-benzothiadiazol-4-yl-N′-3,4-dihydro-2H-spiro[chromene-2,1′-cyclobutan]-4-ylurea)] | – | – | – | <50
17 | O=C(Nc1cccc2c(=O)[nH]ccc12)NC1CC2(CCC2)Oc2ccccc21 (centres unmarked) [Example 30, N′-(1-oxo-1,2-dihydroisoquinolin-5-yl)-N-3,3′,4,4′-tetrahydro-2′H-spiro[chromene-2,1′-cyclobutan]-4-ylurea (N′-(1-oxo-1,2-dihydroisoquinolin-5-yl)-N-3,4-dihydro-2H-spiro[chromene-2,1′-cyclobutan]-4-ylurea)] | – | – | – | <50
18 | O=C(NCc1ccncc1)N[C@H]1CC2(CCC2)Oc2ccccc21 [Example 37] | 0 | – | – | –
19 | O=C(NCc1ccc(C(F)(F)F)cc1)N[C@H]1CC2(CCC2)Oc2ccccc21 [Example 38, 1-((S)-3,4-Dihydrospiro[2H-1-benzopyran-2,1′-cyclobutan]-4-yl)-3-(4-trifluoromethylbenzyl)urea] | 10.9 | – | – | –
20 | O=C(NC1CC2(CCC2)Oc2ccccc21)N1CCCCC1 (centres unmarked) [Example 39, N-3,4-dihydrospiro[chromene-2,1′-cyclobutan]-4-ylpiperidine-1-carboxamide] | 0 | – | – | –
21 | O=C(Nc1cccc2cnccc12)NC1CC2(CCC2)Oc2c(F)cc(F)cc21 (centres unmarked) [Example 48, 1-(6,8-Difluoro-3,4-dihydro-spiro[2H-1-benzopyran-2,1′-cyclobutane]-4-yl)-3-(isoquinolin-5-yl)urea] | > 50 | 16.1 | – | –
22 | S=C(Nc1cccc2cnccc12)NC1CC2(CCC2)Oc2ccccc21 (centres unmarked) [Example 80, N′-isoquinolin-5-yl-N-3,3′,4,4′-tetrahydro-2′H-spiro[chromene-2,1′-cyclobutan]-4-ylthiourea(N′-isoquinolin-5-yl-N-3,4-dihydro-2H-spiro[chromene-2,1′-cyclobutan]-4-ylthiourea)] | > 50 | 49 | 187 to 188 | –
23 | S=C(Nc1cccc2ccncc12)NC1CC2(CCC2)Oc2ccccc21 (centres unmarked) [Example 83, N′-isoquinolin-8-yl-N-3,3′,4,4′-tetrahydro-2′H-spiro[chromene-2,1′-cyclobutan]-4-ylthiourea (N′-isoquinolin-8-yl-N-3,4-dihydro-2H-spiro[chromene-2,1′-cyclobutan]-4-ylthiourea)] | – | – | – | <50
24 | (±) 1-(3,4-Dihydro-6-fluoro-spiro[2H-1-benzopyran-2,1′-cyclobutane]-4-yl)-3-(isoquinolin-5-yl)urea [Example 50] | – | 7.8 | – | >50
25 | (±) 1-(3,4-Dihydro-spiro[2H-1-benzopyran-2,1′-cyclobutane]-4-yl)-3-(6-fluoro-1,3-benzothiazol-2-yl)urea [Example 12] | – | – | – | <50

— US7842703B2, “Substituted benzofused derivatives and their use as vanilloid receptor ligands” (Glenmark Pharmaceuticals S.A., priority 2005, dated 2010)
